Legend:
Format in all cases: cell-based, human
HaCaT cells [1] = assay: HaCaT cell spreading assay on oil interfaces (cell area from phalloidin staining); conditions: HaCaT on BSA interfaces, Novec 7500+PFBC; blebbistatin 10 μM, Y27632 10 μM, Cytochalasin D 1 μM
Method: Generation of fluorinated oil droplet substrates for cell culture. Thin glass slides (25×60 mm, VWR) were plasma oxidized for 10 minutes and placed into a staining jar. Toluene (1 mL, Sigma-Aldrich) and 30 μL trichloro (1H, 1H, 2H, 2H-perfluorooctyl) silane (Sigma-Aldrich) were added in a glass vial. The staining jar containing the glass slides and the glass vial with the silane solution were placed into a desiccator under vacuum for 5 min and then left under reduced atmosphere but sealed overnight. The fluorinated glass slides were cut into chips (1×1 cm) and placed into a 24 well plate. After sterilisation with 70% ethanol, the wells were washed (twice) and then filled with 2 mL PBS (pH 7.4, except when specified, for the adsorption of poly(L-lysine) at pH 10.5). 100 tL droplets of fluorinated oil (Novec 7500) with fluorinated surfactant (2,3,4,5,6-Pentafluorobenzoyl chloride) at specified concentrations (see specific experiments, but often 0.01 mg/mL) were deposited on top of the glass slide and formed a fluorinated oil droplet spreading over the entire substrate. […] For the deposition of BSA, a 10 μL BSA solution (100 mg/mL) was added into PBS, to make a final concentration of 1 mg/mL, and incubated for 1 h.
HaCaT keratinocyte cell line culture and seeding. Human keratinocyte HaCaT cells were cultured in DMEM (Thermofisher Scientific) containing 10% foetal bovine serum (FBS, Labtech), 1% L-Glutamine (200 mM) and 1% Penicillin-Streptomycin (5,000 U/mL). […] For cell spreading assays HaCaT cells were harvested and seeded onto fluorinated droplets at a density of 25,000 per well (13,000 per cm^2).
Immuno-fluorescence microscopy and data analysis. Fluorescence microscopy images were acquired with a Leica DMI4000B fluorescence microscopy (CTR4000 lamp; 63×1.25 NA, oil lens; 10×0.3 NA lens; 2.5×0.07 NA lens; DFC300FX camera). […] To determine adhesion cell areas, images were analyzed by thresholding and watershedding fluorescence images of the cytoskeleton (phalloidin stained). […]

MSCs = assay: MSC culture on fluorinated oils conditioned with culture medium only; conditions: after 7 days of culture; no protein nanosheets deposition, conditioning with cell culture medium
Method: (§1) Generation of liquid-liquid (FC-40) interfaces for cell culture. 24 well plates were plasma oxidized using a plasma coater (Diener, 100% intensity) for 10 minutes. 500 mL ethanol (VWR chemicals), 10 mL trimethylamine (Sigma-Aldrich) and 10 mL of the desired silane (triethoxy(octyl)silane (Sigma-Aldrich) to prepare interfaces with liquid PDMS, or trichloro (1H, 1H, 2H, 2H-perfluorooctyl) silane (Sigma-Aldrich) for the fluorinated oil) were added into each well. Ethanol was added in between wells to slow down evaporation and parafilm was used to seal the well plate lid. After incubating for 24 h, the wells were washed in a sterile environment with ethanol (twice) and ddH2O (three times). 500 μL FC-40 (Sigma) was added in the fluorophilic 24 well plate to form the bottom liquid layer, 2 mL of MSC growth medium was directly added on the FC-40 layer, 5K cells were seeded in each well.

primary keratinocytes = assay: Keratinocyte cell sheet formation on flat fluorinated oil interfaces; conditions: FAD medium containing ROCK inhibitor, 10 μM; PLL-functionalised fluorinated oil
Description: Keratinocyte culture and seeding.
Immunofluorescence staining and antibodies.
Immuno-fluorescence microscopy and data analysis. Fluorescence microscopy images were acquired with a Leica DMI4000B fluorescence microscopy (CTR4000 lamp; 63×1.25 NA, oil lens; 10×0.3 NA lens; 2.5×0.07 NA lens; DFC300FX camera). Confocal microscopy images were acquired with a Leica TCS SP2 confocal and multiphoton microscope (X-Cite 120 LED lamp; 63×1.40-0.60 NA, oil lens; 10×0.3 NA lens; DFC420C CCD camera). To determine cell densities per mm^2, cell counting was carried out by thresholding and watershedding nuclei images in ImageJ. […] To determine adhesion cell areas, images were analyzed by thresholding and watershedding fluorescence images of the cytoskeleton (phalloidin stained). The area of cell clusters was removed when analysing results.

HaCaT cells [2] = assay: HaCaT cell proliferation on liquid substrates (Hoechst staining); conditions: fluorinated oil supplemented with the surfactant
Method: as §1, with “liquid-liquid” for “liquid-liquid (FC-40)”, “[…]” for “mL”, “PDMS” for “PDMS,”, “cover.” for “lid.”, “500 μL FC-40 (Sigma) was added in the fluorophilic 24 well plate to form the bottom liquid layer, 2 mL of MSC growth medium was directly added on the FC-40 layer, 5K cells were seeded in each well.” left out
Hoechst staining and LIVE/DEAD cell viability assay. Cell proliferation was assessed via Hoechst staining. […] Viability of HaCaT cells on fluorinated oil interfaces was quantified by LIVE/DEAD viability/cytotoxicity assay using a kit supplied by Thermofisher Scientific. In brief, HaCaT cells were incubated in DMEM with 2 μM Calcein AM and 4 μM Ethidium homodimer for 30 min. stained cells were imaged using a Leica DM14000 fluorescence microscopy (see below). The percentage of viable cells was calculated by counting the number of green (live) cells and dividing by the total number of cells (including dead cells).
Immuno-fluorescence microscopy and data analysis. […]

Row | Compound | cell spreading on oil (HaCaT cells [1]) | other results
1 | Cc1ccc2c(c1)C(=O)C1(O)CCN(c3ccccc3)C1=N2 (stereo not drawn) [Blebbistatin, blebbistatin] | slight increase | 
2 | CCOC(F)(C(F)(F)C(F)(F)C(F)(F)F)C(F)(C(F)(F)F)C(F)(F)F (stereo not drawn) [Novec 7500, hexane, 3-ethoxy-1,1,1,2,3,4,4,5,5,6,6,6-dodecafluoro-2-(trifluoromethyl)] |  | MSC proliferation (MSCs): did not lead to any significant cell proliferation
3 | C[C@@H](N)[C@H]1CC[C@H](C(=O)Nc2ccncc2)CC1 [Y27632] | further decreased | integrity of keratinocyte cell sheets on oil (primary keratinocytes): preserved their integrity
4 | C=C1[C@@H](C)[C@H]2[C@H](Cc3ccccc3)NC(=O)[C@]23[C@H](OC(C)=O)/C=C/[C@@](C)(O)C(=O)[C@@H](C)C/C=C/[C@H]3[C@@H]1O [cytochalasin D, Cytochalasin D] | further decreased | 
5 | O=C(Cl)c1c(F)c(F)c(F)c(F)c1F [pentafluorobenzoyl chloride, 2,3,4,5,6-pentafluorobenzoyl chloride] |  | HaCaT cell proliferation at the surface of fluorinated oil (HaCaT cells [2]): proliferated

Reference: patent publication US20240200022A1, “METHODS AND SYSTEMS FOR THE CULTURE OF CELLS AT LIQUID-LIQUID INTERFACES” (QUEEN MARY UNIVERSITY OF LONDON, priority 2017, published 2024)
